Experimental data reported in publication PMC9143043, “Synthesis and Biological Evaluation of 5′-O-Fatty Acyl Ester Derivatives of 3′-Fluoro-2′,3′-dideoxythymidine as Potential Anti-HIV Microbicides” (Molecules, 2022).
Like-named read-outs stand apart in the source and are kept apart here.

Experiments:
Type in all cases: cell-based
[1] = test system: HIV-1 strain IIIB (lymphocytotropic strain); experiment: Single-round infection assay, cell-free X4 virus (lymphocytotropic strain); conditions: read-out: (X4) EC50, Table 2, single-round infection assay
Method: (§1) Anti-HIV activities of the compounds were evaluated according to the previously reported procedure. In summary, the HeLa (Human cervical carcinoma: ATCC CCL-2.1) cell line was used to measure the inactivation of both the cell-free virus preparations and virus-infected cell preparations. The cells were plated in culture plates 24 h prior to each experiment. Cell-free viral preparations of HIV-1 strains IIIB (lymphocytotropic strain) and BaL (monocytotropic strain) were used for the cell-free assay. For the cell-associated assay, the SulT1 cells were infected with IIIB virus 5 days prior to the experiment. Cell-free virus and virus-infected cells were mixed with different compounds and diluted to make different concentrations. The mixture was further diluted with the buffer and added to the HeLa cells.

[2] = test system: cell-associated HIV-1 IIIB (infected SulT1 cells); experiment: Cell-associated transmission assay (IIIB); conditions: Human immunodeficiency virus 1, IIIB, read-out: (CA) EC50, Table 2; cell-associated transmission assay (IIIB)
Method: as §1

[3] = test system: HIV-1 94US3393IN (B-Wild Type); experiment: PBMC multi-round infection assay, clinical isolate 94US3393IN; conditions: Human immunodeficiency virus 1
Method: (§2) Based on a preliminary screening, conjugates 5 and 8 were evaluated for their ability to inhibit a drug-resistant virus in a peripheral blood mononuclear cell (PBMC) assay. In this assay, FLT, 5, and 8 were tested against B- and C-wild type and A-17 and 4755–5 multidrug-resistant (MDR) clinical isolates of HIV-1, where compounds were incubated with PBMCs for 6 h and then washed off before the addition of the virus and further culture for 7 days.
(§3) For the assessment of compounds against the wild type (WT; R5; clones = 94US3393IN [B subtype] and 98USMSC5016 [C subtype]) and drug-resistant (clones = 4755−5 and A17) HIV-1 clinical isolates, PHA-P stimulated cells from at least two normal donors were pooled, diluted in fresh media, and plated in the interior wells of a 96-well round-bottom microplate. Pooling PBMCs from more than one donor was used to minimize the variability observed between the individual donors, which results from the quantitative and qualitative differences in HIV infection and overall response to the PHA and IL-2 of primary lymphocyte populations. Each plate contained virus/cell control wells (cells + virus), experimental wells (drug + cells + virus), and compound control wells (drug + media, no cells, necessary for MTS monitoring of cytotoxicity). Test drug dilutions were prepared in microtiter tubes, and each concentration was placed in appropriate wells. Following the addition of the drug dilutions to the PBMCs, a predetermined dilution of virus stock was then placed in each test well (final MOI ≅ 0.1). Because HIV-1 is not cytopathic to PBMCs, the same assay plate can be used for both the antiviral efficacy and cytotoxicity measurements. Compounds were incubated with virus and cells in a 96-well format for 6 h. The cells were then washed by removing 75% of the medium (150 μL) and replacing it with 150 μL of fresh (no drug) medium. The plates were then centrifuged (∼200 g) for 10 min, after which 150 μL of the medium was removed, and an additional 150 μL of fresh medium was added to each well and further incubated for 6 days or until peak reverse transcriptase (RT) activity was detected. A microtiter plate-based RT reaction was utilized. Incorporated radioactivity (counts per minute, CPM) was quantified using standard liquid scintillation techniques. Compound IC50 (50%, inhibition of virus replication) was calculated using statistical software and regression analysis. A cellular uptake study was conducted for fluorescence conjugates 23 and 24 using a previously published procedure with minor modifications. All of the experiments were conducted in triplicate.

[4] = test system: HIV-1 98USMSC5016 (C-Wild Type); experiment: PBMC multi-round infection assay, clinical isolate 98USMSC5016; conditions: Human immunodeficiency virus 1
Method: as §2, §3

HIV-1 A-17 MDR (B-NNRTI) = experiment: PBMC multi-round infection assay, resistant isolate A-17
Method: as §2, §3

HIV-1 4755-5 MDR (B-MDR) = experiment: PBMC multi-round infection assay, resistant isolate 4755-5
Method: as §2, §3

sperm = experiment: Spermicidal activity (sperm viability and motility); conditions: abstract; versus N-9 positive control
Method: In this study, several fatty acyl conjugates of nucleosides (5–8, 10–12, 15, and 16) were tested for their spermicidal activities. […] Detailed data analysis is available in the Supplementary Materials (Figure S2).
(§4) Human T lymphoblastoid cells (CCRF-CEM, ATCC No. CCL-119) were grown to 70% confluency in a culture medium. CCRF-CEM cells were incubated with 10 µM of the compounds and mixed with trypan blue (0.1%) to color the dead cells. The percentage of viability was calculated by using a Cellometer Auto T.4 (Nexcelom Bioscience). The cell viability against the vaginal cells (VK-2/E6E7) was conducted according to the previously reported procedure. The effect of conjugates on the sperm viability and mobility was evaluated as described previously.

[5] = test system: human vaginal cells (VK-2/E6E7); experiment: Vaginal cell cytotoxicity (MTS assay); conditions: 6 h incubation; 31-1000 µg/mL
Method: A commercially used spermicidal agent (N-9) and conjugate cytotoxicity was evaluated using immortalized human vaginal cells (VK-2/E6E7). […] Observed cytotoxicity from N-9 could be correlated with the generation of higher levels of cytokines by N-9.
as §4
Figure 2 (A) Dose–response curves of the vaginal cytotoxicity in VK-2 cells (MTS assay) for 5, 6, 8, and N-9 after 6 h incubations. (B) Proinflammatory cytokine (IL-1α) production in the VK-2 cells (ELISA) after a 6 h incubation in the presence of 5, 6, 8, and N-9.

HIV-1 = experiment: Anti-HIV activity overall (cell-free and cell-associated assays) and antiviral index
Description: Table 2, Table 3 and Table 4 illustrate the anti-HIV-1 activities against the cell-free, cell-associated, and multidrug-resistant virus and sperm inhibiting properties of the selected compounds. In summary, the anti-HIV activity of 5′-substituted derivatives of FLT and AZT (5–18) was dependent on the nature of the 5′-substituent. […] None of the other esters were active against cell-associated virus. […] The difference in the activity of fatty acyl derivatives of FLT compared to each other and FLT may be due to their differences in the rate of uptake and intracellular hydrolysis.
By design, the ester moiety in the conjugates needs to be hydrolyzed to render parent nucleosides and fatty acids to produce anti-HIV activity. The anti-HIV activities of 5′-O-ether substituted FLT and AZT (3 and 4, Scheme 2) with a stable tetradecanyl (myristyl) group were compared with hydrolyzable 5′-O-ester substituted FLT and AZT (6 and 7).
as §1

[6] = Human immunodeficiency virus 1, PBMC

Cc1cn([C@H]2C[C@H](F)[C@@H](COC(=O)CCCCCCCCCCCN=[N+]=[N-])O2)c(=O)[nH]c1=O [Compound 5, 3′-fluoro-2′,3′-dideoxy-5′-O-(12-azidododecanoyl)thymidine] was tested, and the EC50 ([1]; Human immunodeficiency virus 1, IIIB) was no more than 1000 nM, the EC50 [1] was 900 nM and the EC50 [2] was 12600 nM. The IC50 [3] was 1.1 nM, the IC90 [3] was 6.4 nM and the IC50 [4] was 2.1 nM. The IC90 [4] was 8.6 nM, the IC50 (HIV-1 A-17 MDR (B-NNRTI); [6]) was 4.4 nM and the IC90 (HIV-1 A-17 MDR (B-NNRTI); [6]) was 14.1 nM. The “fold more potent than FLT against A-17” value (HIV-1 A-17 MDR (B-NNRTI); versus FLT IC50) was “at least 6 fold”, the IC50 (HIV-1 4755-5 MDR (B-MDR); [6]) was 39.6 nM and the IC90 (HIV-1 4755-5 MDR (B-MDR); [6]) was 507 nM. The “fold more potent than FLT against 4755-5” value (HIV-1 4755-5 MDR (B-MDR); versus FLT IC50) was no less than 2.7 fold, the “effect on sperm viability” value (sperm) was “did not alter vaginal cell and sperm viability” and the “cytotoxicity to vaginal cells” value [5] was “did not show significant cytotoxic effects”. The “anti-HIV activity (in words)” value (HIV-1) was “significant anti-HIV activity at noncytotoxic concentrations”, the “antiviral index, times better than AZT” value (HIV-1; versus AZT) was greater than 30 times and the “antiviral index, times better than FLT” value (HIV-1; versus FLT) was greater than 4 times.
